Consider 68 molecules from patent US9029559B2, “Substituted 3-heteroaroylamino-propionic acid derivatives and their use as pharmaceuticals” (SANOFI, priority 2011, dated 2015).

Molecules are shown by their SMILES.

The term IC50 denotes the midpoint of a concentration-inhibition curve.

The target of one assay is Recombinant human cathepsin A (Homo sapiens (Human), UniProt P10619). Nature of the assay: Cathepsin A inhibitory activity (cleavage of Bodipy FL-labeled bradykinin, microfluidic capillary electrophoresis). In kind it is biochemical. As to conditions: read-out: Activity (Cathepsin A inhibitory activity, IC50).
Recombinant human cathepsin A, sequence (P10619 29-326): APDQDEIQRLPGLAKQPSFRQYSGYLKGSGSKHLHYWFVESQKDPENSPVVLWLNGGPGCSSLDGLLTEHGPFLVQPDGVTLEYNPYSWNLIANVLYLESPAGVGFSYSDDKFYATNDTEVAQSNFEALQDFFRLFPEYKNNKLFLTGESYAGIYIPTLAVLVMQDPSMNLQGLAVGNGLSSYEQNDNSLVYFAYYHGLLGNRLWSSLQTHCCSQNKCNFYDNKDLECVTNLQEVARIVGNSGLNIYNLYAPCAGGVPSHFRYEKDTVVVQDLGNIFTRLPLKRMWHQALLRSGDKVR
Recombinant human cathepsin A, sequence (P10619 327-480): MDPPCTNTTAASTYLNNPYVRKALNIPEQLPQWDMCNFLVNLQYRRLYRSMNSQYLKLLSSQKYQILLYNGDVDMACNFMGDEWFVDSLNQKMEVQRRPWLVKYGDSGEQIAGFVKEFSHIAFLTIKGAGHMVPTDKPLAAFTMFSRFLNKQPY
Method: Pharmacological Tests a) Cathepsin A Inhibitory Activity
Briefly, cathepsin A was incubated at 10 μg/ml with cathepsin L at 1 μg/ml in activation buffer (25 mM 2-(morpholin-4-yl)-ethanesulfonic acid (MES), pH 6.0, containing 5 mM dithiothreitol (DTT)) for 15 min at 37° C.
The activated cathepsin A was diluted in assay buffer (25 mM MES, pH 5.5, containing 5 mM DTT) and mixed with the test compound (dissolved in assay buffer containing (v/v) 3% DMSO) or, in the control experiments, with the vehicle in a multiple assay plate. After incubation for 15 min at room temperature, as substrate then bradykinin carrying an N-terminal ®Bodipy FL (4,4-difluoro-5,7-dimethyl-4-bora-3a,4a-diaza-s-indacene-3-propionyl) label (JPT Peptide Technologies GmbH; dissolved in assay buffer) was added to the mixture. […] After incubation for 15 min at room temperature the reaction was stopped by the addition of stop buffer (130 mM 2-(4-(2-hydroxy-ethyl)-piperazin-1-yl)-ethanesulfonic acid, pH 7.4, containing (v/v) 0.013% ®Triton X-100, 0.13% Coating Reagent 3 (Caliper Life Sciences), 6.5% DMSO and 20 μM ebelactone B (Sigma, #E0886)).
Uncleaved substrate and product were then separated by a microfluidic capillary electrophoresis on a LabChip® 3000 Drug Discovery System (12-Sipper-Chip; Caliper Life Sciences) and quantified by determination of the respective peak areas. Substrate turnover was calculated by dividing product peak area by the sum of substrate and product peak areas, and the enzyme activity and the inhibitory effect of the test compound thus quantified.
With `COc1ccc([C@H](CC(=O)O)NC(=O)c2cccc(-c3ccccc3Cl)n2)cc1` [compound 599], the IC50 turned out to be 2.83 µM.

Take `O=C(O)C[C@H](NC(=O)c1cccc(-c2ccccc2Cl)n1)c1cccc(Cl)c1Cl` [compound 610]: the 50% inhibitory concentration (IC50) is 2.32 µM.

In the case of `O=C(O)CC(NC(=O)c1cc(Sc2ncccn2)ccn1)c1ccccc1Cl` (centres unmarked) [compound 601], the IC50 is 3.85 µM.

For the molecule `O=C(O)C[C@H](NC(=O)c1cccc(-c2ccccc2F)n1)c1cccc(Cl)c1Cl` [compound 606], the IC50 was 3.93 µM.

For the molecule `COc1cc(OC)nc(Oc2cccnc2C(=O)NC(CC(=O)O)c2ccccc2Cl)n1` (centres unmarked) [compound 615], the half-maximal inhibitory concentration (IC50) was 3.58 µM.

The same assay, now with this note: read-out: Activity (IC50, cathepsin A inhibition).
Regarding `Cc1ccccc1[C@H](CC(=O)O)NC(=O)c1nc(Cl)ccc1Cl` [compound 506], the half-maximal inhibitory concentration (IC50) was found to be 8.48 µM.

As to `O=C(O)CC(NC(=O)c1cc(O)ccn1)c1ccccc1Cl` (centres unmarked) [compound 529], the 50% inhibitory concentration (IC50) was 5.12 µM.

In the case of `O=C(O)CC(NC(=O)c1cccc(F)n1)c1ccccc1Cl` (centres unmarked) [compound 531], the IC50 worked out at 7.65 µM.

Turning to `O=C(O)CC(NC(=O)c1cccc(-c2ccccc2F)n1)c1ccccc1Cl` (centres unmarked) [compound 589], the IC50 turned out to be 4.89 µM.

With `COc1cccc(-c2cccc(C(=O)NC(CC(=O)O)c3ccccc3Cl)n2)c1` (centres unmarked) [compound 596], the IC50 worked out at 5.77 µM.

`O=C(O)C[C@@H](Cc1ccccc1)NC(=O)c1cccc(-c2ccccc2F)n1` [compound 561]: the half-maximal inhibitory concentration (IC50) was found to be 5.33 µM.

The same assay, now with this note: read-out: Activity (IC50, cathepsin A inhibitory activity).
`Cc1ccccc1[C@H](CC(=O)O)NC(=O)c1cc(CC(C)C)nc(N)n1` [compound 52]: the concentration for half-maximal inhibition (IC50) amounted to 3.68 µM.

Turning to `COc1ccc(C(=O)N[C@@H](CC(=O)O)c2ccccc2C)nc1-c1cccc(-c2nnc(C)o2)c1` [compound 471, (S)-3-({5-Methoxy-6-[3-(5-methyl-[1,3,4]oxadiazol-2-yl)-phenyl]-pyridine-2-carbonyl}-amino)-3-o-tolyl-propionic acid], the half-inhibitory concentration (IC50) came out at 4.23 µM.

Turning to `COc1ccc(C(=O)N[C@@H](CC(=O)O)c2ccccc2F)nc1-c1ccc(C#N)s1` [compound 283], the concentration for half-maximal inhibition (IC50) came out at 5.4 µM.

As for `COc1cccc(-c2cc(C(=O)N[C@@H](CC(=O)O)c3ccccc3C)cnc2OC)c1` [compound 412], the IC50 was determined as 8.36 µM.

With `Cc1ccccc1[C@H](CC(=O)O)NC(=O)c1cc(N(C)C)nc(N(C)C)n1` [compound 13], the half-maximal inhibitory concentration (IC50) amounted to 10.1 µM.

For the molecule `Cc1ccccc1[C@H](CC(=O)O)NC(=O)c1cncc(-c2ccccc2C(F)(F)F)c1` [compound 66], the IC50 came to 4.29 µM.

As to `Cc1ccccc1[C@H](CC(=O)O)NC(=O)c1cccc(N2CCCCC2)n1` [compound 54], the IC50 was determined as 8.93 µM.

In the case of `COc1ccc(-c2cncc(C(=O)N[C@@H](CC(=O)O)c3ccccc3C)c2)cc1` [compound 57], the concentration for half-maximal inhibition (IC50) was found to be 11.5 µM.

On to `COc1ccc(C(=O)N[C@@H](CC(=O)O)c2ccccc2Cl)nc1-c1cccnc1` [compound 444], for which the IC50 was found to be 10.1 µM.

Consider `COc1ccc(C(=O)N[C@@H](CC(=O)O)c2ccccc2F)nc1-c1ccc(Cl)cc1` [compound 258], for which the IC50 was found to be 5.27 µM.

In the case of `COc1ncc(C(=O)N[C@@H](CC(=O)O)c2ccccc2C)cc1-c1ccc(F)c(Cl)c1` [compound 406], the half-inhibitory concentration (IC50) came to 10 µM.

On to `COc1ccc(C(=O)N[C@@H](CC(=O)O)c2ccccc2Cl)nc1-c1cc(C)cnc1Cl` [compound 481], for which the half-maximal inhibitory concentration (IC50) is 8.77 µM.

Regarding `COc1ccc(-c2cc(C(=O)N[C@@H](CC(=O)O)c3ccccc3C)cnc2OC)cc1` [compound 409], the 50% inhibitory concentration (IC50) stood at 9.04 µM.

Consider `COc1cc(Cl)ccc1-c1nc(C(=O)N[C@@H](CC(=O)O)c2ccc(C)cc2)ccc1OC` [compound 232], for which the concentration for half-maximal inhibition (IC50) amounted to 2.33 µM.

In the case of `COc1ccc(C(=O)N[C@@H](CC(=O)O)c2ccccc2Cl)nc1-c1ccc(F)nc1` [compound 453], the IC50 is 6.49 µM.

In the case of `COc1ccc(C(=O)N[C@@H](CC(=O)O)c2ccc(C)cc2)nc1-c1ccc(C)cc1C` [compound 224], the half-inhibitory concentration (IC50) was found to be 3.39 µM.

Turning to `COc1ccc(C(=O)N[C@@H](CC(=O)O)c2ccccc2F)nc1-c1cccc(-c2ccccc2)c1` [compound 276], the concentration for half-maximal inhibition (IC50) was 2.16 µM.

With `Cc1ccccc1[C@H](CC(=O)O)NC(=O)c1cccc(-n2ccnc2)n1` [compound 56], the half-maximal inhibitory concentration (IC50) was found to be 11.1 µM.

As to `COc1ccc(Cl)cc1-c1nc(C(=O)N[C@@H](CC(=O)O)c2ccccc2Cl)ccc1OC` [compound 459], the IC50 was 1.15 µM.

Regarding `Cc1cc(C(=O)N[C@@H](CC(=O)O)c2ccccc2C)nc(C)n1` [compound 55], the half-inhibitory concentration (IC50) is 5.26 µM.

Consider `COc1ncc(C(=O)N[C@@H](CC(=O)O)c2ccccc2C)cc1-c1ccc(F)cc1` [compound 407], for which the IC50 worked out at 4.39 µM.

Regarding `COc1ccc(C(=O)N[C@@H](CC(=O)O)c2ccccc2Cl)nc1-c1ccc(C)c(F)c1` [compound 449], the IC50 came to 2.02 µM.

Turning to `COc1ncc(C(=O)N[C@@H](CC(=O)O)c2ccccc2C)cc1-c1ccc(C#N)cc1` [compound 421], the half-inhibitory concentration (IC50) was determined as 10.4 µM.

Consider `COc1ccc(C(=O)N[C@@H](CC(=O)O)c2ccccc2F)nc1-c1ccc(F)c(F)c1` [compound 280], for which the IC50 was determined as 3.12 µM.

Regarding `COc1ncc(C(=O)N[C@@H](CC(=O)O)c2ccccc2C)cc1-c1cccc(Cl)c1` [compound 413], the IC50 was found to be 6.24 µM.

Regarding `COc1ccc(C(=O)N[C@@H](CC(=O)O)c2ccccc2F)nc1-c1cccc(C(C)=O)c1` [compound 275], the IC50 came out at 8.54 µM.

`COc1ncc(C(=O)N[C@@H](CC(=O)O)c2ccccc2Cl)cc1-c1cccc(-c2ccccc2)c1` [compound 400]: the half-maximal inhibitory concentration (IC50) was above 10 µM.

On to `Cc1ccccc1[C@H](CC(=O)O)NC(=O)c1cncc(-c2ccc3c(c2)OCO3)c1` [compound 76], for which the half-maximal inhibitory concentration (IC50) came to 8.04 µM.

On to `COc1ncc(C(=O)N[C@@H](CC(=O)O)c2ccccc2C)cc1-c1cccc(-c2ccccc2)c1` [compound 423], for which the IC50 was above 10 µM.

Consider `COc1ccc(-c2nc(C(=O)N[C@@H](CC(=O)O)c3ccccc3F)ccc2OC)cc1` [compound 259], for which the concentration for half-maximal inhibition (IC50) turned out to be 5.01 µM.

Turning to `COc1ccc(C(=O)N[C@@H](CC(=O)O)c2ccccc2F)nc1-c1ccccc1C(=O)N(C)C` [compound 295], the IC50 was determined as 4.51 µM.

On to `COc1ccc(F)c(-c2cncc(C(=O)N[C@@H](CC(=O)O)c3ccccc3C)c2)c1` [compound 88], for which the half-inhibitory concentration (IC50) was 8.51 µM.

Still in this assay, the particulars now being: read-out: Activity [μM] (IC50, cathepsin A inhibitory activity).
With `COc1ccc(C(=O)N[C@@H](CC(=O)O)c2ccc(C)cc2)nc1-c1ccc2ccccc2c1` [compound 195], the concentration for half-maximal inhibition (IC50) was 8.83 µM.

For `COc1ccc(C(=O)N[C@@H](CC(=O)O)c2ccccc2C)nc1-c1cc(F)cc(F)c1` [compound 362], the half-inhibitory concentration (IC50) was 1.43 µM.

For `Cc1ccccc1[C@H](CC(=O)O)NC(=O)c1cccc(-c2cccc(-c3ccccc3)c2)n1` [compound 147], the IC50 was found to be 3.16 µM.

`COc1ncc(C(=O)N[C@@H](CC(=O)O)c2ccccc2Cl)cc1-c1ccc(C)cc1` [compound 388]: the concentration for half-maximal inhibition (IC50) turned out to be 7.12 µM.

On to `COc1ncc(C(=O)N[C@@H](CC(=O)O)c2ccccc2Cl)cc1-c1ccc(Cl)cc1` [compound 386], for which the half-inhibitory concentration (IC50) is 10.4 µM.

`Cc1ccccc1[C@H](CC(=O)O)NC(=O)c1cccc(-c2ccccc2C(F)(F)F)n1` [compound 139]: the half-maximal inhibitory concentration (IC50) amounted to 1.09 µM.

With `Cc1ccccc1[C@H](CC(=O)O)NC(=O)c1cncc(-c2cccc(C)c2C)c1` [compound 116, (S)-3-{[5-(2,3-Dimethyl-phenyl)-pyridine-3-carbonyl]-amino}-3-o-tolyl-propionic acid], the IC50 stood at 1.01 µM.

Regarding `COc1ccc(C(=O)N[C@@H](CC(=O)O)c2ccccc2Cl)nc1-c1cccc(C(F)(F)F)c1` [compound 329], the IC50 came to 3.74 µM.

Regarding `Cc1cc(F)c(-c2cccc(C(=O)N[C@@H](CC(=O)O)c3ccccc3C)n2)cc1Cl` [compound 175], the IC50 stood at 2.36 µM.

`COc1ccc(C(=O)N[C@@H](CC(=O)O)c2ccccc2Cl)nc1-c1ccc(F)c(Cl)c1` [compound 332]: the half-maximal inhibitory concentration (IC50) was determined as 5.24 µM.

Take `COc1ccc(C(=O)N[C@@H](CC(=O)O)c2ccccc2Cl)nc1-c1ccc(C(F)(F)F)cc1` [compound 337]: the IC50 was determined as 9.5 µM.

Turning to `COc1ccc(C(=O)N[C@@H](CC(=O)O)c2ccccc2C)nc1-c1cc(C)cc(Cl)c1` [compound 378], the concentration for half-maximal inhibition (IC50) was found to be 7.49 µM.

On to `COc1ccc(F)c(-c2nc(C(=O)N[C@@H](CC(=O)O)c3ccccc3F)ccc2OC)c1` [compound 307], for which the IC50 was found to be 2.92 µM.

Turning to `Cc1ccccc1[C@H](CC(=O)O)NC(=O)c1ccnc(-c2cccc(Cl)c2Cl)c1` [compound 123], the IC50 was determined as 3.7 µM.

As to `Cc1ccccc1[C@H](CC(=O)O)NC(=O)c1cccc(-c2cccc(OCC3CC3)c2)n1` [compound 171], the IC50 was found to be 6.98 µM.

In the case of `COc1ccc(-c2nc(C(=O)N[C@@H](CC(=O)O)c3ccc(C)cc3)ccc2OC)cc1` [compound 187], the IC50 turned out to be 4.85 µM.

For the molecule `COc1ccc(C(=O)N[C@@H](CC(=O)O)c2ccc(C)cc2)nc1-c1cccc(C(C)=O)c1` [compound 203], the IC50 was 8.35 µM.

Regarding `COc1ccc(C(=O)N[C@@H](CC(=O)O)c2ccccc2C)nc1-c1ccncc1` [compound 365], the IC50 stood at 5.45 µM.

`COc1ccc(C(=O)N[C@@H](CC(=O)O)c2ccccc2F)nc1-c1cccc(C(C)(C)O)c1` [compound 327]: the concentration for half-maximal inhibition (IC50) stood at 7.32 µM.

As to `Cc1ccc(-c2cccc(C(=O)N[C@@H](CC(=O)O)c3ccccc3C)n2)cc1C` [compound 153], the IC50 was found to be 1.19 µM.

On to `COc1ccc(C(=O)N[C@@H](CC(=O)O)c2ccccc2F)nc1-c1ccc(C#N)cc1F` [compound 325], for which the IC50 is 3.58 µM.

On to `Cc1ccccc1[C@H](CC(=O)O)NC(=O)c1cccc(-c2c(C)noc2C)n1` [compound 159], for which the IC50 worked out at 14.4 µM.

With `Cc1ccccc1[C@H](CC(=O)O)NC(=O)c1cccc(-c2ccc(C(=O)N(C)C)c(Cl)c2)n1` [compound 174], the concentration for half-maximal inhibition (IC50) is 1.59 µM.

Regarding `COc1ccc(C(=O)N[C@@H](CC(=O)O)c2ccc(C)cc2)nc1-c1ccc(Cl)cc1` [compound 186, (S)-3-{[6-(4-Chloro-phenyl)-5-methoxy-pyridine-2-carbonyl]-amino}-3-p-tolyl-propionic acid], the IC50 was 3.56 µM.

Turning to `COc1ccc(C(=O)N[C@@H](CC(=O)O)c2ccccc2F)nc1-c1cc(C)ccc1Cl` [compound 323], the IC50 was determined as 2.31 µM.
